Laboratory results taken from US20260028390A1, “ALPHA1-ANTITRYPSIN FOR USE IN THE TREATMENT OF DISEASES OR DISORDERS OF THE NERVOUS SYSTEM SUCH AS CHRONIC INFLAMMATORY DEMYELINATING POLYNEUROPATHY” (Ageronix SA, priority 2022, published 2026).

Assays:
Assay type in all cases: in vivo
CIDP mice = experiment: Sciatic nerve histology, CIDP mouse model
Description: C57BL/6 mice were received at 8 weeks of age and housed under controlled conditions for the duration of the study. Three groups of 4 animals each were assigned to the following subcutaneous treatments twice daily at 7:00 AM and 7:00 PM for 2 weeks, from 20 to 35 days after the start of disease induction: • Wild type (WT) mice receiving the vehicle, 0.9% NaCl (positive control) • CIDP mice receiving the vehicle, 0.9% NaCl (negative control) • CIDP mice receiving human AAT (AAT), 50 mg/kg per injection
Disease induction consisted in subcutaneous injection of mouse sciatic nerve homogenate in phosphate buffer saline (PBS)+Freund's adjuvant mixture at 10 mL/kg. For each treatment, 3 different body sites injections were performed. Control mice also received three subcutaneous injections of PBS+Freund's adjuvant at the same 3 different body sites.
On the first (Day 20) and last (Day 35) day of treatment, the neuromuscular and performance of animals was tested with a rotarod test, grip test and a sensory test using the Von Frey filament test, as well as sciatic nerve electrophysiology test. After the last treatment at Day 35, these tests were repeated, animals were sacrificed and the left sciatic nerve was sampled for histological evaluation of the number and size of […].

[1] = Plasma AAT levels, CMT1A mouse study (50 mg/kg twice daily); conditions: CMT1A + AAT group
Description: (§1) Animals were split in 3 groups (wild-type control (subcutaneous 0.9% NaCl), CMT1A-vehicle (subcutaneous 0.9% NaCl), CMT1A-human alpha-1 antitrypsin (subcutaneous, twice daily, 50 mg/kg per injection)) of 3 mice each (3 weeks old males of 18±2.5 g at the beginning of study) and all went through the following protocol after 7 days of acclimation on site.
Plasma levels of AAT were evaluated every 5 days from the first day of treatment to the last treatment day.
AAT was not detected in plasma of the wild type control and CMT1A mice treated with vehicle at the analyzed time points (day 14, day 19, day 24 and day 29). The AAT was detected in plasma of CMT1A+AAT group at a mean of 6.07 μg/mL, 6.99 μg/mL, 8.14 μg/mL and 5.22 μg/mL at day 14, day 19, day 24 and day 29 respectively.

plasma IL-6 = experiment: Plasma IL-6 concentration, CMT1A mouse study (50 mg/kg twice daily); conditions: for Plasma IL-6 concentration (Mean ± SD): CMT1A mice
Description: as §1
Starting from the age of 4 weeks, animals were subjected to blood samplings for the determination of interleukin-6 (IL-6) and tumor necrosing factor alpha (TNFα) levels, as described in FIG. 16.

[2] = CIDP mice, day 35, AAT 50 mg/kg sc twice daily

alpha1-antitrypsin (AAT) protein
axonal diameter compared to the CIDP+vehicle treated group (CIDP mice; CIDP + AAT, day 35): significant increase
g-ratio compared to the CIDP+vehicle treated group (CIDP mice; CIDP + AAT, day 35): decrease
total number of axons per surface compared to the vehicle treated group (CIDP mice; CIDP + AAT, day 35): Slight but non-significant increase
Sciatic nerve histology, Axonal diameter (Mean ± SEM) (CIDP mice; [2]): 3.82 ± 0.09 μm
Sciatic nerve histology, Axons/100 μm^2 (Mean ± SEM) (CIDP mice; [2]): 26.00 ± 2.10
Sciatic nerve histology, g-ratio (Mean ± SEM) (CIDP mice; [2]): 0.715 ± 0.008
AAT detected in plasma (mean) ([1]; day 14): 6.07 µg/mL
AAT detected in plasma (mean) ([1]; day 19): 6.99 µg/mL
AAT detected in plasma (mean) ([1]; day 24): 8.14 µg/mL
AAT detected in plasma (mean) ([1]; day 29): 5.22 µg/mL
Plasma IL-6 concentration (Mean ± SD) (plasma IL-6; Day 1 (baseline)): 34.19 ± 1.67 pg/mL
Plasma IL-6 concentration (Mean ± SD) (plasma IL-6; Day 8): 39.10 ± 1.91 pg/mL
Plasma IL-6 concentration (Mean ± SD) (plasma IL-6; Day 14): 84.21 ± 4.727 pg/mL
Plasma IL-6 concentration (Mean ± SD) (plasma IL-6; Day 29): 90.20 ± 3.085 ^† pg/mL
plasma IL-6 concentration vs animals treated with vehicle (plasma IL-6; CMT + AAT, day 29): lower
